Experimental data as given in patent publication US20240270751A1, “Pyrazolopyridinone Compounds” (BeiGene Ltd., priority 2021, published 2024).

Tests used:
DGKα = DGKα (Homo sapiens (Human), UniProt P23743); experiment: Biochemical DGK IC50 assay, DGKα ADP-Glo assay; conditions: 7.5 nM enzyme, 140 μM ATP, 80 μM DAG
How it was run: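 Compounds at final 1.55˜10000 nM or 23.3˜150000 nM were tested against full-length DGKα. Substrate was lipid micelles of DAG and PS resuspended in 25 mM HEPES pH 7.0 with 0.5 mM EDTA and 160 mM octyl β-D-glucopyranoside. ADP formed was detected by ADP-Glo.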

DGKζ = DGKζ (Homo sapiens (Human), UniProt Q13574); experiment: Biochemical DGK IC50 assay, DGKζ ADP-Glo assay; conditions: 0.5 nM enzyme, 140 μM ATP, 80 μM DAG; read-out: DGKζ ADP-Glo assay IC50
DGKζ, sequence (Q13574 other isoform, or with tags, fused parts or gaps): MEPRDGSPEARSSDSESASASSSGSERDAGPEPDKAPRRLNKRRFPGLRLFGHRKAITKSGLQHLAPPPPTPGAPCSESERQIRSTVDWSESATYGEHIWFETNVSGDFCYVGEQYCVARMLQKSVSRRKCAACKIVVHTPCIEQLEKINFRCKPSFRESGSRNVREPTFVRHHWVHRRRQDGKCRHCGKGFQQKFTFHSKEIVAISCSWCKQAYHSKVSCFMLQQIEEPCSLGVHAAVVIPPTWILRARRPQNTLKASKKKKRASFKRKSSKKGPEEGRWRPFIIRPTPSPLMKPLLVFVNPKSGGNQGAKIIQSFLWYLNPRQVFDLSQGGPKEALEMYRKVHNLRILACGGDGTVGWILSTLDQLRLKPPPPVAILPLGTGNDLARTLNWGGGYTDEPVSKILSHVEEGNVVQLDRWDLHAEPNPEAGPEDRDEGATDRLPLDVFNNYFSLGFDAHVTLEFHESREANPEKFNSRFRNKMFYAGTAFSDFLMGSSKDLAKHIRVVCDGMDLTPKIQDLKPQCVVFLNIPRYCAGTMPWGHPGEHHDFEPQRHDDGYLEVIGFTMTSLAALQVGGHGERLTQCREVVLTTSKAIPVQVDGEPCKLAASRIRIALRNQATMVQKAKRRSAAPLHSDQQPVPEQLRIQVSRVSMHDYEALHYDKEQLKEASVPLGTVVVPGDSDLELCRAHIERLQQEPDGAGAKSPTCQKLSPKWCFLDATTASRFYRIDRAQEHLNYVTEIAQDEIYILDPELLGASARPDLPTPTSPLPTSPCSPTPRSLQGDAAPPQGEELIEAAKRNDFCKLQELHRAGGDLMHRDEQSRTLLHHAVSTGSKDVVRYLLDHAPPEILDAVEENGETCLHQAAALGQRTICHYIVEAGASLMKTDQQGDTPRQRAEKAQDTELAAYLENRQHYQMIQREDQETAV
How it was run: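 ADP formation measured by ADP-Glo luminescence, with test compounds at final 1.55–10000 nM or 23.3–150000 nM. Enzyme: purified full-length human DGKζ from Sf9 insect cells; substrate: DAG/PS micelles in 25 mM HEPES pH 7.0, 0.5 mM EDTA, octyl glucoside.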

DGKα, sequence (P23743 whole entry): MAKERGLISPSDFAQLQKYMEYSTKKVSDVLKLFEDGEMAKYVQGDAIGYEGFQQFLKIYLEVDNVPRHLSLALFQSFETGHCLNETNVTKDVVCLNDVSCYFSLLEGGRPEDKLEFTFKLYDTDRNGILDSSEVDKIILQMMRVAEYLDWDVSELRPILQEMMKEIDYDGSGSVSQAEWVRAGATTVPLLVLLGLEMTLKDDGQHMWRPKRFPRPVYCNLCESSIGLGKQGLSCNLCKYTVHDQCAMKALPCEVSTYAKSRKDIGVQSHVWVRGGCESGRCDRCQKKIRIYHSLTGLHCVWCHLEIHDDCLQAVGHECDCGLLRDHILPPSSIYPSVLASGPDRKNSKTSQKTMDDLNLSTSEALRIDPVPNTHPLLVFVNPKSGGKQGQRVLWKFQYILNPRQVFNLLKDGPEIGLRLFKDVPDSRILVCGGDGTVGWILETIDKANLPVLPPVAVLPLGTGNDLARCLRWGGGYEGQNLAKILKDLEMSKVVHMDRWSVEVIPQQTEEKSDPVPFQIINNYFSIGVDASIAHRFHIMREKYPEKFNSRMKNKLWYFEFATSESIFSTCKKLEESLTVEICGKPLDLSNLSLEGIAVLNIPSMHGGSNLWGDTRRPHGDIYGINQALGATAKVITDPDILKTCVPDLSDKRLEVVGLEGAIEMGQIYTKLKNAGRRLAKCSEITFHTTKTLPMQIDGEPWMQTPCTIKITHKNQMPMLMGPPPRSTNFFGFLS

Compound	IC50 (DGKα) [nM]	IC50 (DGKζ) [nM]
CC[C@H]1CN(C(C)c2cc3cnccc3cn2)[C@H](CC)CN1c1cc(=O)n(C)c2cn(CC#N)nc12 (single isomer, unassigned) [Compound A368a]	4900	6650
CC[C@H]1CN(C(C)c2ncc(F)cc2F)[C@H](CC)CN1c1cc(=O)n(C)c2cn(CC#N)nc12 (stereo partly drawn) [Compound A148]	34	190
CC(c1ccc2ncc(CO)nc2c1)N1C[C@H](C)N(c2cc(=O)n(C)c3cn(CC#N)nc23)C[C@H]1C (single isomer, unassigned) [Compound A309a]	118000	> 10000
CC(c1ccc2nccnc2c1)N1C[C@H](C)N(c2cc(=O)n(C)c3cn(C4CC4)nc23)C[C@H]1C (stereo partly drawn) [Compound A17, 2-cyclopropyl-7-((2S,5R)-2,5-dimethyl-4-(1-(quinoxalin-6-yl)ethyl)piperazin-1-yl)-4-methyl-2,4-dihydro-5H-pyrazolo[4,3-b]pyridin-5-one]	9000	13000
CC[C@H]1CN(C(C)c2cnc(C)c(C)n2)[C@H](CC)CN1c1cc(=O)n(C)c2cn(CC#N)nc12 (single isomer, unassigned) [Compound A355a]	10900	6420
CC[C@H]1CN(C(C)c2cc(Cl)nn2CC)[C@H](CC)CN1c1cc(=O)n(C)c2cn(CC#N)nc12 (stereo partly drawn) [Compound A212]	> 10000	1130
CC[C@H]1CN(C(C)c2cccc(C(N)=O)c2)[C@H](CC)CN1c1cc(=O)n(C)c2cn(CC#N)nc12 (stereo partly drawn) [Compound A108]	3830	> 10000
CC#CCn1cc2c(n1)c(N1C[C@@H](C)N([C@@H](C)c3ccc4nccnc4c3)C[C@@H]1C)cc(=O)n2C [Compound A22b, 2-(but-2-yn-1-yl)-7-((2S,5R)-2,5-dimethyl-4-((S)-1-(quinoxalin-6-yl)ethyl)piperazin-1-yl)-4-methyl-2,4-dihydro-5H-pyrazolo[4,3-b]pyridin-5-one]	190	72
[2H]C([2H])([2H])c1cnc2ccc(C(C)N3C[C@H](C)N(c4cc(=O)n(C)c5cn(CC#N)nc45)C[C@H]3C)cc2n1 (stereo partly drawn) [Compound A313, 2-(7-((2S,5R)-2,5-dimethyl-4-(1-(3-(methyl-d3)quinoxalin-6-yl)ethyl)piperazin-1-yl)-4-methyl-5-oxo-4,5-dihydro-2H-pyrazolo[4,3-b]pyridin-2-yl)acetonitrile]	48000	41
CC[C@H]1CN(C(C)c2ccc(F)cc2COC)[C@H](CC)CN1c1cc(=O)n(C)c2cn(CC#N)nc12 (stereo partly drawn) [Compound A79, 2-(7-((2S,5R)-2,5-diethyl-4-(1-(4-fluoro-2-(methoxymethyl)phenyl)ethyl)piperazin-1-yl)-4-methyl-5-oxo-4,5-dihydro-2H-pyrazolo[4,3-b]pyridin-2-yl)acetonitrile]	2480	115
CC[C@H]1CN(C(C)c2ncc(Cl)n2CC)[C@H](CC)CN1c1cc(=O)n(C)c2cn(CC#N)nc12 (single isomer, unassigned) [Compound A187b]	6320	199
CC(c1ccc2nccnc2c1)N1C[C@H](C)N(c2cc(=O)n(C)c3c[nH]nc23)C[C@H]1C (stereo partly drawn) [Compound A1, 7-((2S,5R)-2,5-dimethyl-4-(1-(quinoxalin-6-yl)ethyl)piperazin-1-yl)-4-methyl-2,4-dihydro-5H-pyrazolo[4,3-b]pyridin-5-one]	1800	> 150000
CC(C1CCCCC1)N1C[C@H](C)N(c2cc(=O)n(C)c3cn(CC#N)nc23)C[C@H]1C (stereo partly drawn) [Compound A223]	> 10000	> 10000
CC(c1ccc(F)cc1OC(F)F)N1C[C@H](C)N(c2cc(=O)n(C)c3cn(CC#N)nc23)C[C@H]1C (stereo partly drawn) [Compound A247, 2-(7-((2S,5R)-4-(1-(2-(difluoromethoxy)-4-fluorophenyl)ethyl)-2,5-dimethylpiperazin-1-yl)-4-methyl-5-oxo-4,5-dihydro-2H-pyrazolo[4,3-b]pyridin-2-yl)acetonitrile]	> 10000	283
C[C@H](c1ccc2nccnc2c1)N1CCN(c2cc(=O)n(C)c3cn(CC#N)nc23)CC1C(N)=O (single isomer, unassigned) [Compound A198b]	> 10000	> 10000
CC[C@H]1CN(C(C)c2ccc3nccnc3c2)[C@H](C)CN1c1cc(=O)n(C)c2cn(CC#N)nc12 (stereo partly drawn) [Compound A98, 2-(7-((2S,5R)-2-ethyl-5-methyl-4-(1-(quinoxalin-6-yl)ethyl)piperazin-1-yl)-4-methyl-5-oxo-4,5-dihydro-2H-pyrazolo[4,3-b]pyridin-2-yl)acetonitrile]	27000	410
CC[C@H]1CN(C(C)c2ccc(F)c(OC)c2)[C@H](CC)CN1c1cc(=O)n(C)c2cn(CC#N)nc12 (stereo partly drawn) [Compound A82]	1020	90

Compound	IC50 (DGKα) [nM]	IC50 (DGKζ) [nM]
CC[C@@H]1CN(c2cc(=O)n(C)c3cn(CC#N)nc23)[C@@H](CC)CN1Cc1ccc(F)cc1 [Compound A70]	38	640
CC[C@H]1CN(C(C)c2ccc(F)cc2C(F)(F)F)[C@H](CC)CN1c1cc(=O)n(C)c2cn(CC#N)nc12 (single isomer, unassigned) [Compound A196b]	93200	38
Cc1cc2cc(C(C)N3C[C@H](C)N(c4cc(=O)n(C)c5cn(CC#N)nc45)C[C@H]3C)ccc2cn1 (mixture of isomers) [Compound A304, 2-(7-((2S,5R)-2,5-dimethyl-4-(1-(3-methylisoquinolin-6-yl)ethyl)piperazin-1-yl)-4-methyl-5-oxo-4,5-dihydro-2H-pyrazolo[4,3-b]pyridin-2-yl)acetonitrile]	3660	763
CC(c1ccc2nccnc2c1)N1C[C@H](C)N(c2nc(=O)n(C)c3cn(CC#N)nc23)C[C@H]1C (stereo partly drawn) [Compound A154, 2-(7-((2S,5R)-2,5-dimethyl-4-(1-(quinoxalin-6-yl)ethyl)piperazin-1-yl)-4-methyl-5-oxo-4,5-dihydro-2H-pyrazolo[4,3-d]pyrimidin-2-yl)acetonitrile]	9210	104
CC[C@H]1CN(C(C)c2ccc3cnccc3c2)[C@H](CC)CN1c1cc(=O)n(C)c2cn(CC#N)nc12 (stereo partly drawn) [Compound A48]	75	73
CC(c1ccc2ccc(C#N)cc2c1)N1C[C@H](C)N(c2cc(=O)n(C)c3cn(CC#N)nc23)C[C@H]1C (stereo partly drawn) [Compound A307]	2470	1750
COCc1cc(F)ccc1C(C)N1C[C@H](C)N(c2cc(=O)n(C)c3cn(CC#N)nc23)C[C@H]1C (stereo partly drawn) [Compound A29, 2-(7-((2S,5R)-4-(1-(4-fluoro-2-(methoxymethyl)phenyl)ethyl)-2,5-dimethylpiperazin-1-yl)-4-methyl-5-oxo-4,5-dihydro-2H-pyrazolo[4,3-b]pyridin-2-yl)acetonitrile]	23000	110
CC(c1ccc2nccnc2c1)N1C[C@H](C)N(c2cc(=O)n(C)c3cn(C(CC#N)C4CCCC4)nc23)C[C@H]1C (stereo partly drawn) [Compound A20, 3-cyclopentyl-3-(7-((2S,5R)-2,5-dimethyl-4-(1-(quinoxalin-6-yl)ethyl)piperazin-1-yl)-4-methyl-5-oxo-4,5-dihydro-2H-pyrazolo[4,3-b]pyridin-2-yl)propanenitrile]	> 150000	39000
CC[C@H]1CN(C(C)c2ccc3nccnc3c2)[C@H](CC)CN1c1cc(=O)n(C)c2cn(CC#N)nc12 (single isomer, unassigned) [Compound A28a]	490	7.6
CC(C1CCOCC1)N1C[C@H](C)N(c2cc(=O)n(C)c3cn(CC#N)nc23)C[C@H]1C (stereo partly drawn) [Compound A242]	> 10000	> 10000
C[C@@H]1CN(c2cc(=O)n(C)c3cn(CC#N)nc23)[C@@H](C)CN1Cc1ccc(F)cc1C(F)(F)F [Compound A246]	9720	1070
CC(c1ccc2nccnc2c1)N1C[C@H](CO)N(c2cc(=O)n(C)c3cn(CC#N)nc23)C[C@H]1C (stereo partly drawn) [Compound A101, 2-(7-((2R,5R)-2-(hydroxymethyl)-5-methyl-4-(1-(quinoxalin-6-yl)ethyl)piperazin-1-yl)-4-methyl-5-oxo-4,5-dihydro-2H-pyrazolo[4,3-b]pyridin-2-yl)acetonitrile]	> 10000	707
Cc1cnc2cc([C@H](C)N3C[C@H](C)N(c4cc(=O)n(C)c5cn(CC#N)nc45)C[C@H]3C)ccc2n1 (single isomer, unassigned) [Compound A269a, 2-(7-((2S,5R)-2,5-dimethyl-4-((S)-1-(2-methylquinoxalin-6-yl)ethyl)piperazin-1-yl)-4-methyl-5-oxo-4,5-dihydro-2H-pyrazolo[4,3-b]pyridin-2-yl)acetonitrile, or 2-(7-((2S,5R)-2,5-dimethyl-4-((R)-1-(2-methylquinoxalin-6-yl)ethyl)piperazin-1-yl)-4-methyl-5-oxo-4,5-dihydro-2H-pyrazolo[4,3-b]pyridin-2-yl)acetonitrile]	> 10000	365
Cc1cnc2ccc([C@H](C)N3C[C@H](C)N(c4nc(=O)n(C)c5cn(CC#N)nc45)C[C@H]3C)cc2n1 [Compound A319, 2-(7-((2S,5R)-2,5-dimethyl-4-((S)-1-(3-methylquinoxalin-6-yl)ethyl)piperazin-1-yl)-4-methyl-5-oxo-4,5-dihydro-2H-pyrazolo[4,3-d]pyrimidin-2-yl)acetonitrile]	49800	23
CCC(c1ccc(C2CC2)cc1)N1C[C@H](C)N(c2cc(=O)n(C)c3cn(CC#N)nc23)C[C@H]1C (stereo partly drawn) [Compound A36]	550	970
C[C@@H](c1ccc2nccnc2c1)N1CC2CCC1CN2c1cc(=O)n(C)c2cn(CC#N)nc12 (stereo partly drawn) [Compound A125a]	> 10000	> 10000
